Experimental data taken from US9227957B2, “Pesticidal pyrimidine compounds” (Dow AgroSciences, LLC, priority 2012, dated 2016).

Legend:
Conditions in all cases: 120 h, read-out: percent control or mortality rate
[1] = test system: cabbage looper (Trichoplusia ni (Huebner)); test: 128 well diet tray insecticidal bioassay, cabbage looper
[2] = test system: beet armyworm (Spodoptera exigua); test: 128 well diet tray insecticidal bioassay, beet armyworm
[3] = test system: corn earworm (Helicoverpa zea); test: 128 well diet tray insecticidal bioassay, corn earworm

Row | Structure (SMILES) | mortality at 50 µg/cm2 [1] | mortality at 50 µg/cm2 [2] | mortality at 50 µg/cm2 [3]
1 | COc1c(Cl)csc1NC(=O)Nc1nc(OCC(F)(F)F)cc(OCC(F)(F)F)n1 [Compound 25] | 80 to 100% | 80 to 100% | –
2 | CN(C(=O)Nc1nc(OCC(F)(F)F)cc(OCC(F)(F)F)n1)c1cc(-c2ccc(Cl)cc2)cs1 [Compound 26] | 80 to 100% | 80 to 100% | –
3 | Cc1ccc(N(C)C(=O)Nc2nc(OCC(F)(F)F)cc(OCC(F)(F)F)n2)s1 [Compound 39] | 80 to 100% | – | –
4 | CC(=O)OCN(C(=O)Nc1ccc(C(F)(F)F)s1)c1nc(OCC(F)(F)F)cc(OCC(F)(F)F)n1 [Compound 5] | – | 80 to 100% | 80 to 100%
5 | COCN(C(=O)N(C)c1ccc(C(F)(F)F)s1)c1nc(OCC(F)(F)F)cc(OCC(F)(F)F)n1 [Compound 7] | – | 80 to 100% | 80 to 100%
6 | O=C(Nc1nc(OCC(F)(F)F)cc(OCC(F)(F)F)n1)Nc1sccc1Cl [Compound 32] | – | 80 to 100% | –
7 | COCN(C(=O)N(COCc1ccccc1)c1nc(OCC(F)(F)F)cc(OCC(F)(F)F)n1)c1ccc(C(F)(F)F)s1 [Compound 10, 3-(benzyloxymethyl)-3-(4,6-bis(2,2,2-trifluoroethoxy)pyrimidin-2-yl)-1-(methoxymethyl)-1-(5-(trifluoromethyl)thiophen-2-yl)urea] | – | 80 to 100% | 80 to 100%
8 | Cc1ccsc1NC(=O)Nc1nc(OCC(F)(F)F)cc(OCC(F)(F)F)n1 [Compound 37] | < 80% | 80 to 100% | –
9 | O=C(Nc1nc(OCC(F)(F)F)cc(OCC(F)(F)F)n1)Nc1sccc1Br [Compound 45] | – | < 80% | –
10 | O=C(Nc1nc(OCC(F)(F)F)cc(OCC(F)(F)F)n1)Nc1ccc(C(F)(F)F)s1 [Compound 1, 3-(4,6-bis(2,2,2-trifluoroethoxy)pyrimidin-2-yl)-1-(5-(trifluoromethyl)thiophen-2-yl)urea] | – | < 80% | 80 to 100%
11 | CN(C(=O)Nc1nc(OCC(F)(F)F)cc(OCC(F)(F)F)n1)c1cc(C#N)cs1 [Compound 38] | 80 to 100% | – | –
12 | Cc1csc(N(C)C(=O)Nc2nc(OCC(F)(F)F)cc(OCC(F)(F)F)n2)c1 [Compound 34] | 80 to 100% | – | –
13 | CN(C(=O)Nc1nc(OCC(F)(F)F)c(F)c(OCC(F)(F)F)n1)c1ccc(C(F)(F)F)s1 [Compound 13] | – | 80 to 100% | 80 to 100%
14 | COc1ccsc1N(C)C(=O)Nc1nc(OCC(F)(F)F)cc(OCC(F)(F)F)n1 [Compound 36] | < 80% | – | –
15 | CN(C(=O)N(COCc1ccccc1)c1nc(OCC(F)(F)F)cc(OCC(F)(F)F)n1)c1ccc(C(F)(F)F)s1 [Compound 9] | – | 80 to 100% | 80 to 100%
16 | Cc1ccsc1N(C)C(=O)Nc1nc(OCC(F)(F)F)cc(OCC(F)(F)F)n1 [Compound 31] | < 80% | – | –
17 | O=C(Nc1nc(OCC(F)(F)F)c(F)c(OCC(F)(F)F)n1)Nc1ccc(C(F)(F)F)s1 [Compound 12] | – | 80 to 100% | 80 to 100%
18 | O=C(Nc1nc(OCC(F)(F)F)cc(OCC(F)(F)F)n1)Nc1sc(Cl)c(Cl)c1Cl [Compound 44] | 80 to 100% | 80 to 100% | –
19 | CN(C(=O)Nc1nc(OCC(F)(F)F)cc(OCC(F)(F)F)n1)c1ccc(C(F)(F)F)s1 [Compound 2, 3-(4,6-bis(2,2,2-trifluoroethoxy)pyrimidin-2-yl)-1-methyl-1-(5-(trifluoromethyl)thiophen-2-yl)urea] | – | 80 to 100% | 80 to 100%
20 | COCN(C(=O)Nc1ccc(C(F)(F)F)s1)c1nc(OCC(F)(F)F)c(F)c(OCC(F)(F)F)n1 [Compound 15] | – | 80 to 100% | –
21 | CN(C(=O)Nc1nc(OCC(F)(F)F)cc(OCC(F)(F)F)n1)c1sccc1Cl [Compound 28] | – | < 80% | –
22 | CC(=O)OCN(C(=O)N(C)c1ccc(C(F)(F)F)s1)c1nc(OCC(F)(F)F)cc(OCC(F)(F)F)n1 [Compound 8] | – | 80 to 100% | 80 to 100%
23 | COCN(C(=O)Nc1ccc(C(F)(F)F)s1)c1nc(OCC(F)(F)F)cc(OCC(F)(F)F)n1 [Compound 4, 3-(methoxymethyl)-3-(4,6-bis(2,2,2-trifluoroethoxy)pyrimidin-2-yl)-1-(5-(trifluoromethyl)thiophen-2-yl)urea] | – | 80 to 100% | 80 to 100%
24 | COc1c(Cl)csc1N(C)C(=O)Nc1nc(OCC(F)(F)F)cc(OCC(F)(F)F)n1 [Compound 35] | < 80% | – | –
25 | CC(=O)OCN(C(=O)N(C)c1ccc(C(F)(F)F)s1)c1nc(OCC(F)(F)F)c(F)c(OCC(F)(F)F)n1 [Compound 19] | – | 80 to 100% | 80 to 100%
